Laboratory results: patent US11708338B2, “Substituted phenyl sulfonyl phenyl triazole thiones and uses thereof” (Neuropore Therapies, Inc., priority 2017, dated 2023)

What was measured:
Assay type in all cases: in vivo, mouse
[1] = system: insoluble alpha-synuclein deposits (PK+resistant); assay: IHC quantification of insoluble (PK+resistant) alpha-synuclein deposits in brain, 1 month administration study; details: L61 ASYN transgenic mice, FIG. 9A
Procedure: Multiple in vivo administration studies of Compound 1 were carried out in the Line 61 (L61) mThy1-alpha-synuclein transgenic mouse model of Parkinson's disease (PD). The mThy1-alpha-synuclein transgenic mouse model overexpresses wild-type human ASYN under the Thy-1 promoter studies (commonly referred to as Line 61 transgenic mice; Rockenstein et al., 2002). […]
Alpha-synuclein (ASYN) is a neuronal protein whose dysregulation has been implicated in the pathogenesis of PD. The effects of Compound 1 on alpha-synuclein aggregation were assessed in both L61 ASYN transgenic and non-transgenic mice in a 1 month administration study. […] At the end of one month, the mice were sacrificed, and immunohistochemical (IHC) detection of total alpha-synuclein deposits, insoluble alpha-synuclein deposits (PK+resistant), microtubule-associated protein 1A/1B-light chain 3 (LC3), and monomeric alpha-synuclein levels were assessed in the harvested brain tissues.
The quantification and IHC staining of PK-resistant alpha-synuclein were performed using known techniques (Rockenstein et al., J Neurosci Res. 2002, 68(5):568-78; Tanji et al., Acta Neuropathol. 2010, 120, 145-154; Nuber et al., Brain. 2013, February; 136(Pt 2):412-32).

[2] = system: dopaminergic (DAT) transporter; assay: DAT IHC immunolabeling in striatum, striatal-to-reference ratio; details: L61 ASYN transgenic mice, 3 months
Procedure: The harvested brain tissues were drop fixed using 4% PFA and sectioned on a vibratome, and representative sections corresponding to the striatum and cerebellum were assessed for DAT with IHC staining.
Immunolabeling studies of DAT were conducted using a monoclonal antibody (1:500; MAB369; Millipore, Temecula, Calif.) and a biotinylated secondary antibody (1:100; BA4000, Vector Labs) and analysis was performed on blindcoded sections from Line 61 transgenic and non-transgenic mice. Slides were digitized using a high resolution automated Nanozoomer slide scanner (Hamamatsu Corp.). Digitized images were analyzed using Halo (Indica Labs) image analysis software package by placing an ROI frame within the dorsal striatum and another within a separate reference brain region (for normalization of DAT signal). A thresholding algorithm was defined and then applied equally to all images to determine the average optical density of DAT immunolabeling across each ROI The results of the analysis were then exported for graphing and statistical analysis and the striatal DAT:cortical (reference region) DAT optical densities ratio was calculated for each subject.
Quantification of DAT density was carried out by calculating the immunofluorescence in striatal sections against that in cerebellum sections to derive a striatal-to-reference ratio.

[3] = system: Translocator Protein (18 kDa) (TSPO); assay: TSPO immunofluorescence in cortex of L61 mice, 3 month administration study; details: L61 ASYN transgenic mice, 5 and 10 mg/kg i.p. daily, 3 months
Procedure: Compound 1 was injected into L61 ASYN transgenic mice and non-transgenic control mice (i.p., once daily) at doses of 5 and 10 mg/kg for 3 months (79 total mice, n=14-17 mice per treatment group). The vehicle control consisted of a solution containing 5% DMSO+20% Cremphor EL+0.9% normal saline. The baseline grip strength of mice was evaluated prior to starting treatments for the 3 month study, and then re-evaluated following 70 days of treatment with vehicle or Compound 1 (5 or 10 mg/kg, i.p. daily).
Neuroinflammation is associated with increased expression of the 18-kDa translocator protein (TSPO), which is a marker for inflammation and is present on the mitochondria of activated microglia, astroglia and macrophages (Crawshaw and Robertson 2017). The effects of Compound 1 on the levels of Translocator Protein (18 kDa) (TSPO) were assessed in both L61 ASYN transgenic and non-transgenic mice in the aforementioned 3 month administration study. At the end of the study, the mice were sacrificed, and immunofluorescence (IF) detection of TSPO were assessed in the harvested brain tissues.
FIGS. 15A-B show the levels of TSPO immunolabeling in representative cross-sections of the cortex of the mice. […]

O=S(=O)(c1ccc(-n2cn[nH]c2=S)cc1)c1ccc(Cl)c(C(F)(F)F)c1 [Compound 1, 4-(4-((4-chloro-3-(trifluoromethyl)phenyl)sulfonyl)phenyl)-2,4-dihydro-3H-1,2,4-triazole-3-thione]
reduction of PK-resistant alpha synuclein levels in cortex as compared to vehicle-treated mice ([1]; 5 mg/kg daily i.p.): 37% | reduction of PK-resistant alpha synuclein levels in cortex as compared to vehicle-treated mice ([1]; 10 mg/kg daily i.p.): 36% | striatal levels of DAT, staining intensity in representative images (FIG. 18) vs vehicle-treated L61 mice ([2]; 5 mg/kg or 10 mg/kg daily): restoring striatal levels of DAT | DAT striatal-to-reference ratio, quantification (FIG. 19) ([2]; 10 mg/kg dose): reduces the GFAP levels in a statistically significant manner | levels of TSPO in cortex vs vehicle control [3]: significantly decreased
